Test results published in the supplement of paper PMC4862054.

Columns and labels:
Experiment in all cases: normalised response (% of control), CellTiter-Glo; higher = more viable cells (100 = DMSO, 0 = benzethonium chloride kill control)
Conditions in all cases: incubation time: 72 h
CAL-51 = test system: CAL-51
Outline: (§1)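 Breast cancer cell lines in 20 µl suspension were added to 384-well plates containing compound at 5 concentrations, spaced in 10-fold steps across a 10,000-fold range chosen for each compound, and incubated for 72 h. CellTox Green fluorescence was read at 485/520 nm, followed by CellTiter-Glo luminescence after 10 min at room temperature. Signals on each plate were normalised so that 0.1 % DMSO equals 100 and a positive kill control equals 0. Every value in the table is the normalised signal at one concentration of the series.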

HCC1937 = test system: HCC1937
Outline: as §1

CAL-85-1 = test system: CAL-85-1
Outline: as §1

BT-474 = test system: BT-474
Outline: as §1

MDA-MB-453 = test system: MDA-MB-453
Outline: as §1

SK-BR-3 = test system: SK-BR-3
Outline: as §1

MDA-MB-231 = test system: MDA-MB-231
Outline: as §1

CAL-120 = test system: CAL-120
Outline: as §1

HDQ-P1 = test system: HDQ-P1
Outline: as §1

HCC1599 = test system: HCC1599
Outline: as §1

MDA-MB-436 = test system: MDA-MB-436
Outline: as §1

HCC1143 = test system: HCC1143
Outline: as §1

MFM-223 = test system: MFM-223
Outline: as §1

MDA-MB-468 = test system: MDA-MB-468
Outline: as §1

Hs578T = test system: Hs578T
Outline: as §1

CAL-148 = test system: CAL-148
Outline: as §1

DU-4475 = test system: DU-4475
Outline: as §1

MCF-10A = test system: MCF-10A
Outline: as §1

BT-549 = test system: BT-549
Outline: as §1

| Structure (SMILES) | normalised response (CAL-51) [%] | normalised response (HCC1937) [%] | normalised response (CAL-85-1) [%] | normalised response (BT-474) [%] | normalised response (MDA-MB-453) [%] | normalised response (SK-BR-3) [%] | normalised response (MDA-MB-231) [%] | normalised response (CAL-120) [%] | normalised response (HDQ-P1) [%] | normalised response (HCC1599) [%] | normalised response (MDA-MB-436) [%] | normalised response (HCC1143) [%] | normalised response (MFM-223) [%] | normalised response (MDA-MB-468) [%] | normalised response (Hs578T) [%] | normalised response (CAL-148) [%] | normalised response (DU-4475) [%] | normalised response (MCF-10A) [%] | normalised response (BT-549) [%] |
| --- | --- | --- | --- | --- | --- | --- | --- | --- | --- | --- | --- | --- | --- | --- | --- | --- | --- | --- | --- |
| Cc1ccc(NC(=O)c2ccc(CN3CCN(C)CC3)cc2)cc1Nc1nccc(-c2cccnc2)n1 [Imatinib] (10 nM) | 107 | 99.3 | 96 | 104 | 108 | 109 | 99.9 | 102 | 106 | 103 | 103 | 101 | 109 | 113 | 107 | 113 | 109 | 104 | 96.7 |
| CO[C@H]1C[C@@H]2CC[C@@H](C)[C@@](O)(O2)C(=O)C(=O)N2CCCC[C@H]2C(=O)O[C@H]([C@H](C)C[C@@H]2CC[C@@H](OCCO)[C@H](OC)C2)CC(=O)[C@H](C)/C=C(\C)[C@@H](O)[C@@H](OC)C(=O)[C@H](C)C[C@H](C)/C=C/C=C/C=C/1C [Everolimus] (0.01 nM) | 132 | 95.9 | 95.3 | 103 | 99.3 | 93.4 | 98.9 | 97.8 | 96.1 | 107 | 95.7 | 93 | 95.3 | 105 | 91.2 | 90.1 | 98.7 | 93.6 | 103 |
| O=C(O)CCCc1ccc(N(CCCl)CCCl)cc1 [Chlorambucil] (1 nM) | 128 | 102 | 99.4 | 102 | 118 | 95.6 | 101 | 97.1 | 101 | 98.4 | 132 | 102 | 102 | 96.9 | 107 | 96.8 | 102 | 100 | 102 |
| Cn1c(=O)n(-c2ccc(C(C)(C)C#N)cc2)c2c3cc(-c4cnc5ccccc5c4)ccc3ncc21 [Dactolisib] (0.1 nM) | 107 | 98.8 | 101 | 104 | 109 | 111 | 105 | 97.4 | 102 | 122 | 99.6 | 97.4 | 108 | 110 | 102 | 102 | 103 | 105 | 100 |
| COc1ccccc1S(=O)(=O)Nc1ccc2c(c1)CN(C)C(=O)N2 [PFI-1] (1 nM) | 77.9 | 99.2 | 98 | 93.7 | 105 | 104 | 103 | 100 | 96 | 80.6 | 94.8 | 94.2 | 101 | 90.8 | 107 | 107 | 104 | 112 | 96.5 |
| Cn1cncc1[C@@](N)(c1ccc(Cl)cc1)c1ccc2c(c1)c(-c1cccc(Cl)c1)cc(=O)n2C [Tipifarnib] (1 nM) | 90.2 | 93.4 | 102 | 89.8 | 109 | 102 | 99.5 | 92.2 | 93.5 | 93.1 | 88 | 94.6 | 96.3 | 93.4 | 96.2 | 97.3 | 103 | 94.5 | 102 |
| Nc1ncnc2c1c(COc1cccc(Cl)c1)nn2C1CCOCC1 (1 nM) | 105 | 100 | 95.7 | 102 | 102 | 109 | 103 | 95.4 | 100 | 107 | 102 | 106 | 102 | 94.7 | 104 | 105 | 101 | 114 | 104 |
| Nc1nc(OCc2cc(Br)cs2)c2[nH]cnc2n1 [Lomeguatrib] (10 nM) | 69.8 | 98.9 | 94.2 | 104 | 97.3 | 105 | 98.5 | 101 | 104 | 91.8 | 103 | 101 | 97.4 | 101 | 105 | 105 | 104 | 109 | 93.5 |
| c1ccc([C@H]2CN3CCSC3=N2)cc1 [Levamisole] (1 nM) | 69.9 | 99.4 | 99.9 | 106 | 112 | 109 | 107 | 98.1 | 104 | 106 | 97.4 | 103 | 106 | 112 | 105 | 113 | 105 | 107 | 106 |
| NS(=O)(=O)OC[C@@H]1C[C@@H](n2ccc3c(N[C@H]4CCc5ccccc54)ncnc32)C[C@@H]1O [Pevonedistat] (1 nM) | 79.2 | 100 | 93.9 | 93.6 | 110 | 107 | 102 | 100 | 100 | 95.9 | 99.7 | 105 | 102 | 96.7 | 99.7 | 106 | 94.7 | 115 | 99.2 |
| CNNCc1ccc(C(=O)NC(C)C)cc1 [Procarbazine] (10 nM) | 66.9 | 107 | 99 | 97.9 | 95.8 | 109 | 106 | 102 | 109 | 91.3 | 97.2 | 105 | 104 | 113 | 101 | 108 | 107 | 103 | 100 |
| Nc1nc(OCc2cc(Br)cs2)c2[nH]cnc2n1 [Lomeguatrib] (1 nM) | 118 | 103 | 99.9 | 100 | 97.6 | 102 | 101 | 101 | 104 | 90.9 | 110 | 97.6 | 102 | 96.2 | 99 | 92.5 | 99.2 | 108 | 103 |
| CC(C)(C#N)c1cc(Cn2cncn2)cc(C(C)(C)C#N)c1 [Anastrozole] (10 nM) | 93.7 | 100 | 94.9 | 101 | 104 | 105 | 100 | 96.2 | 94.3 | 102 | 99.4 | 103 | 104 | 98.8 | 105 | 99.3 | 104 | 110 | 99 |
| CC(C)(C#N)c1cc(Cn2cncn2)cc(C(C)(C)C#N)c1 [Anastrozole] (1 nM) | 89.9 | 99.7 | 102 | 100 | 112 | 111 | 96.7 | 101 | 103 | 110 | 95.2 | 95.5 | 106 | 102 | 99.3 | 94.8 | 105 | 102 | 109 |
| COc1ccccc1S(=O)(=O)Nc1ccc2c(c1)CN(C)C(=O)N2 [PFI-1] (10 nM) | 102 | 94.5 | 94.6 | 99.7 | 97.2 | 88.4 | 103 | 91.8 | 96 | 88.6 | 97.1 | 102 | 109 | 95.3 | 106 | 108 | 109 | 103 | 90.1 |
| O=C1NC(=O)[C@@H](c2cn3c4c(cccc24)CCC3)[C@@H]1c1c[nH]c2ccccc12 [Tivantinib] (1 nM) | 106 | 101 | 96.1 | 107 | 106 | 113 | 98.2 | 100 | 98.7 | 104 | 109 | 98.9 | 97.9 | 104 | 101 | 100 | 98 | 106 | 101 |
| C/C(=C\c1csc(C)n1)[C@@H]1C[C@@H]2O[C@]2(C)CCC[C@H](C)[C@H](O)[C@@H](C)C(=O)C(C)(C)[C@@H](O)CC(=O)O1 [Patupilone] (0.1 nM) | 81.4 | 98 | 104 | 110 | 101 | 98 | 101 | 104 | 105 | 108 | 98 | 97.6 | 103 | 107 | 99.3 | 113 | 106 | 102 | 98.7 |
| O=C1NC(=O)[C@@H](c2cn3c4c(cccc24)CCC3)[C@@H]1c1c[nH]c2ccccc12 [Tivantinib] (0.1 nM) | 87.5 | 95.6 | 96.2 | 102 | 92.5 | 108 | 97.8 | 101 | 101 | 107 | 106 | 97.9 | 103 | 104 | 103 | 101 | 98.8 | 101 | 104 |
| C[C@]12CC[C@H](O)CC1=CC[C@@H]1[C@@H]2CC[C@]2(C)C(c3cccnc3)=CC[C@@H]12 [Abiraterone] (5 nM) | 136 | 94.6 | 110 | 107 | 116 | 111 | 106 | 95.7 | 99.5 | 116 | 103 | 101 | 97.5 | 99 | 104 | 91.8 | 109 | 102 | 95.6 |
| CC(C)c1c(C(=O)Nc2ccccc2)c(-c2ccccc2)c(-c2ccc(F)cc2)n1CC[C@@H](O)C[C@@H](O)CC(=O)O [Atorvastatin] (1 nM) | 89.8 | 98.1 | 98.7 | 94 | 107 | 103 | 95.2 | 92.8 | 95.9 | 96.5 | 95.5 | 98.2 | 97.6 | 94.2 | 98.9 | 103 | 100 | 99.1 | 96.9 |
